Experimental findings from US20150342901A1, “COMPOSITION COMPRISING NATURAL POLYPHENOL COMPOUNDS, AND COMPOSITION FOR ORAL ADMINISTRATION COMPRISING SAME” (SAMSUNG FINE CHEMICALS CO., LTD., priority 2012, published 2015) are described below.

≈ marks a conversion by molar mass, not a printed value.

A short description of this data set: Solubility of poorly water-soluble natural polyphenolic compound (PSNPPC) in water. Particulars: for solubility: PSNPPC alone, solubility = amount (mg) of solute that dissolves in 1 mL of water at 37° C. The class given is physicochemical. The method, then: In the present specification. “solubility” refers to an amount (mg) of a solute (PSNPPC) that dissolves in 1 mL of water at 37° C., which is similar to a human body temperature.
Solubility of 3 types of poorly water-soluble natural polyphenolic compounds (PSNPPC) (a product of Naturex SA of France) were measured, and the results thereof are shown in Table 1.

silymarin: the “Solubility (@37° C.)” value amounted to 0.008.
For orientation: solubility means the concentration that dissolves in the medium under given conditions. `Oc1ccc(C=Cc2cc(O)cc(O)c2)cc1` [Resveratrol, resveratrol]: the solubility worked out at 87 µg/mL (≈ 381 µM).
As to `COc1cc(/C=C/C(=O)CC(=O)/C=C/c2ccc(O)c(OC)c2)ccc1O` [Curcumin, curcumin], the solubility was 4 µg/mL (≈ 10.9 µM).
